Experimental data as given in patent US10544106B2, “Certain chemical entities, compositions, and methods” (NeuPharma, Inc., priority 2016, dated 2020).
pIC50: −log10 of the molar value.

What was measured:
BTK = BTK (Homo sapiens (Human), UniProt Q06187); experiment: Z'-LYTE kinase inhibition assay against BTK; type: biochemical; conditions: for inhibition at 0.1 µM: compound at 100 nM, ATP concentration at Km; for pIC50: series of concentrations, GraphPad Prism 5
Method in brief: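 Compounds were titrated over 10 points (3-fold steps, 1% DMSO) against BTK (1.04-10.4 ng) using Tyr 01 substrate at 2 μM and ATP at Km, pH 7.5 HEPES buffer with MgCl2 and EGTA. After one hour each of reaction and development at room temperature, fluorescence gave percent inhibition and IC50.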

OCI-Ly10 cells = experiment: OCI-Ly10 cell proliferation assay (Alamar Blue, 72 hours); type: cell-based; conditions: Homo sapiens
Method: OCI-Ly10 cells were cultured in Iscove's DMEM supplemented with 20% fetal bovine serum and 1× penicillin/streptomycin/glutamine. The cells were maintained in T175 flasks under 5% CO2 in a 37 ° C. humidified incubator for 5 days prior to plating and assay.
Cells were pooled by centrifugation (200 ref, 8 minutes) and resuspended in fresh medium to a concentration of 2.00E+05 cells/ml. 200 µl of the cell suspension was added to each well (40,000 cells/well) of a black-walled 96 well plate to which 1 μl of compound (n=3 per concentration) in 100% DMSO (0.5% final concentration) was added per well. Vehicle and cell free wells were also included in the assay. The dosed cells were cultured under normal conditions for 72 hours.
Cell proliferation is measured using the dye Alamar Blue (resazurin). Resazurin is reduced to resorufin by cellular enzymes and is fluorescent (544 nm excitation, 612 nm emission). Fluorescence intensity is proportional to cell number. Resazurin was prepared in PBS to a stock concentration of 440 μM. 40 μl of the 440 μM resazurin stock solution was added 3 hours prior to the 72 hour termination of the assay. The plate was returned to normal culture conditions and fluorescence measurements were collected using a Cytation3 multimode plate reader (Biotek) at 72 hours.
The scale utilized in Table 8 is as follows: ++ less than 50 nM and + greater than 50 nM.

Chain of BTK (Q06187 whole entry): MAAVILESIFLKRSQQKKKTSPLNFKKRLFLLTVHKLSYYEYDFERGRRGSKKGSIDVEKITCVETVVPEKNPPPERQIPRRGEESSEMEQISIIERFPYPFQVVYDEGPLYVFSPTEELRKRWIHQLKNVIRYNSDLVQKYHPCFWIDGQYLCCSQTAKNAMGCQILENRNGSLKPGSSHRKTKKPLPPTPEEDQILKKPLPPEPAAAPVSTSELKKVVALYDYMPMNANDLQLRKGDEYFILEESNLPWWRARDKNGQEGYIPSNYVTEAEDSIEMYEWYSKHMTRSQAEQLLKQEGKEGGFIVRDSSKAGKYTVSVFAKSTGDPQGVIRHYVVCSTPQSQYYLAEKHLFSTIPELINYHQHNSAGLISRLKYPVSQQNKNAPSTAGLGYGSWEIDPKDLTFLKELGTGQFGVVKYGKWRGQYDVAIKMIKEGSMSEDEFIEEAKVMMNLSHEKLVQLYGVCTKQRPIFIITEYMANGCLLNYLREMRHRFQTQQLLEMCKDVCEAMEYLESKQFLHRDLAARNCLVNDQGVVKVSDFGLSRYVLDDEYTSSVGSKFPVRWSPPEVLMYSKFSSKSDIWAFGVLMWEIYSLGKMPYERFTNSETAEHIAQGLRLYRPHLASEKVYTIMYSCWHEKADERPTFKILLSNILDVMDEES

Compound	inhibition at 0.1 µM (BTK)	pIC50 (BTK)	pIC50 (OCI-Ly10 cells)
C=CC(=O)Nc1cccc(-c2cc(-c3cccnc3)cc3cnc(N)nc23)c1 [C035, N-(3-(2-amino-6-(pyridin-3-yl)quinazolin-8-yl)phenyl)acrylamide]	> 50%	> 7.00	< 7.30
C=CC(=O)N1CCC(c2cc(-c3ccc(C(=O)Nc4cc(F)ccn4)cc3)n3cnccc23)C1 (stereo not drawn) [C065, 4-(5-(1-acryloylpyrrolidin-3-yl)pyrrolo[1,2-c]pyrimidin-7-yl)-N-(4-fluoropyridin-2-yl)benzamide]	> 50%	> 7.00	> 7.30
C=CC(=O)Nc1cccc(-c2cc(-c3ccc(Oc4ccccn4)cc3)cc3cncnc23)c1 [C099, N-(3-(6-(4-(pyridin-2-yloxy)phenyl)quinazolin-8-yl)phenyl)acrylamide]	> 50%	> 7.00	> 7.30
C=CC(=O)Nc1cccc(-c2cc(-c3ccc(C(=O)N4CCCC4)cc3)cc3cncnc23)c1 [C102, N-(3-(6-(4-(pyrrolidine-1-carbonyl)phenyl)quinazolin-8-yl)phenyl)acrylamide]	> 50%	> 7.00	< 7.30
C=CC(=O)Nc1cccc(-c2cc(-c3ccc(Oc4ccccn4)cc3F)cc3cncnc23)c1 [C112, N-(3-(6-(2-fluoro-4-(pyridin-2-yloxy)phenyl)quinazolin-8-yl)phenyl)acrylamide]	> 50%	> 7.00	> 7.30
C=CC(=O)Nc1cccc(-c2cc(-c3ccc(C(=O)Nc4cc(C5CC5)ccn4)cc3Cl)cc3cncnc23)c1 [C120, 4-(8-(3-acrylamidophenyl)quinazolin-6-yl)-3-chloro-N-(4-cyclopropylpyridin-2-yl)benzamide]	> 50%	> 7.00	> 7.30
C=CC(=O)Nc1cccc(-c2cc(-c3ccc(Oc4ccccn4)cc3OC)cc3cncnc23)c1 [C121, N-(3-(6-(2-methoxy-4-(pyridin-2-yloxy)phenyl)quinazolin-8-yl)phenyl)acrylamide]	> 50%	> 7.00	< 7.30
C=CC(=O)Nc1cccc(-c2cc(-c3ccc(C(=O)Nc4cc(C5CC5)ccn4)cc3)cc3cncnc23)c1 [C131, 4-(8-(3-acrylamidophenyl)quinazolin-6-yl)-N-(4-cyclopropylpyridin-2-yl)benzamide]	> 50%	> 7.00	> 7.30
C=CC(=O)Nc1cccc(-c2cc(-c3ccc(Oc4ccccn4)c(F)c3)cc3cncnc23)c1 [C135, N-(3-(6-(3-fluoro-4-(pyridin-2-yloxy)phenyl)quinazolin-8-yl)phenyl)acrylamide]	> 50%	> 7.00	> 7.30
C=CC(=O)Nc1cccc(-c2cc(-c3ccc(C(=O)Nc4cc(C5CC5)ccn4)c(F)c3)cc3cncnc23)c1 [C139, 4-(8-(3-acrylamidophenyl)quinazolin-6-yl)-N-(4-cyclopropylpyridin-2-yl)-2-fluorobenzamide]	> 50%	> 7.00	> 7.30
C=CC(=O)Nc1cccc(-c2cc(-c3ccc(C(=O)Nc4ccccn4)c(Cl)c3)cc3cncnc23)c1 [C163, 4-(8-(3-acrylamidophenyl)quinazolin-6-yl)-2-chloro-N-(pyridin-2-yl)benzamide]	> 50%	> 7.00	< 7.30
C=CC(=O)N1CCC(c2nc(-c3ccc(Oc4ncccc4F)cc3)n3c(N)nccc23)C1 (stereo not drawn) [C226, 1-(3-(5-amino-3-(4-((3-fluoropyridin-2-yl)oxy)phenyl)imidazo[1,5-c]pyrimidin-1-yl)pyrrolidin-1-yl)prop-2-en-1-one]	> 50%	–	–
CC#CC(=O)N1CCC(c2nc(-c3ccc(C(=O)Nc4ccccn4)c(F)c3)n3c(N)nccc23)C1 (stereo not drawn) [C231, 4-(5-amino-1-(1-(but-2-ynoyl)pyrrolidin-3-yl)imidazo[1,5-c]pyrimidin-3-yl)-2-fluoro-N-(pyridin-2-yl)benzamide]	–	> 7.00	–
C=CC(=O)N1CCCC(c2nc(-c3ccc(Oc4ncccc4F)c(OC)c3)n3c(N)nccc23)C1 (stereo not drawn) [C232, 1-(3-(5-amino-3-(4-((3-fluoropyridin-2-yl)oxy)-3-methoxyphenyl)imidazo[1,5-c]pyrimidin-1-yl)piperidin-1-yl)prop-2-en-1-one]	–	> 7.00	–
C=CC(=O)N1CCC(c2nc(-c3ccc(Oc4ncccc4F)c(OC)c3)n3c(N)nccc23)C1 (stereo not drawn) [C233, 1-(3-(5-amino-3-(4-((3-fluoropyridin-2-yl)oxy)-3-methoxyphenyl)imidazo[1,5-c]pyrimidin-1-yl)pyrrolidin-1-yl)prop-2-en-1-one]	–	> 7.00	–
C=CC(=O)N1CCC(c2nc(-c3ccc(C(=O)Nc4cc(C(F)(F)F)ccn4)cc3)n3c(N)nccc23)C1 (stereo not drawn) [C242, 4-(1-(1-acryloylpyrrolidin-3-yl)-5-amino-imidazo[1,5-c]pyrimidin-3-yl)-N-(4-(trifluoromethyl)pyridin-2-yl)benzamide]	–	> 7.00	–
CC#CC(=O)N1CCCC(c2nc(-c3ccc(Oc4ccccn4)cc3)n3c(N)nccc23)C1 (stereo not drawn) [C244, 1-(3-(5-amino-3-(4-(pyridin-2-yloxy)phenyl)imidazo[1,5-c]pyrimidin-1-yl)piperidin-1-yl)but-2-yn-1-one]	–	> 7.00	–

Continued, values first:

inhibition at 0.1 µM (BTK)	pIC50 (BTK)	pIC50 (OCI-Ly10 cells)	Compound
> 50%	> 7.00	> 7.30	C=CC(=O)Nc1cccc(-c2cc(-c3ccc(Oc4ncccc4F)cc3F)cc3cncnc23)c1 [C105, N-(3-(6-(2-fluoro-4-((3-fluoropyridin-2-yl)oxy)phenyl)quinazolin-8-yl)phenyl)acrylamide]
> 50%	> 7.00	> 7.30	C=CC(=O)Nc1cccc(-c2cc(-c3ccc(Oc4cc(C5CC5)ccn4)cc3)cc3cncnc23)c1 [C183, N-(3-(6-(4-((4-cyclopropylpyridin-2-yl)oxy)phenyl)quinazolin-8-yl)phenyl)acrylamide]
> 50%	> 7.00	> 7.30	C=CC(=O)Nc1cccc(-c2cc(-c3ccc(Oc4cc(C#N)ccn4)cc3)cc3cncnc23)c1 [C184, N-(3-(6-(4-((4-cyanopyridin-2-yl)oxy)phenyl)quinazolin-8-yl)phenyl)acrylamide]
> 50%	–	–	C=CC(=O)N1CCC(c2nc(-c3ccc(Oc4ncccc4C#N)cc3)n3c(N)nccc23)C1 (stereo not drawn) [C227, 2-(4-(1-(1-acryloylpyrrolidin-3-yl)-5-amino-imidazo[1,5-c]pyrimidin-3-yl)phenoxy)nicotinonitrile]
–	> 7.00	–	CC#CC(=O)N1CCC(c2nc(-c3ccc(Oc4ncccc4F)cc3)n3c(N)nccc23)C1 (stereo not drawn) [C228, 1-(3-(5-amino-3-(4-((3-fluoropyridin-2-yl)oxy)phenyl)imidazo[1,5-c]pyrimidin-1-yl)pyrrolidin-1-yl)but-2-yn-1-one]
–	> 7.00	–	CC#CC(=O)N1CCC(c2nc(-c3ccc(Oc4ncccc4C#N)cc3)n3c(N)nccc23)C1 (stereo not drawn) [C229, 2-(4-(5-amino-1-(1-(but-2-ynoyl)pyrrolidin-3-yl)imidazo[1,5-c]pyrimidin-3-yl)phenoxy)nicotinonitrile]
–	> 7.00	–	C=CC(=O)N1CCCC(c2nc(-c3ccc(Oc4ncccc4C#N)c(F)c3)n3c(N)nccc23)C1 (stereo not drawn) [C234, 2-(4-(1-(1-acryloylpiperidin-3-yl)-5-amino-imidazo[1,5-c]pyrimidin-3-yl)-2-fluorophenoxy)nicotinonitrile]
–	> 7.00	–	CC#CC(=O)N1CCC(c2nc(-c3ccc(C(=O)Nc4cc(C5CC5)ccn4)cc3)n3c(N)ncnc23)C1 (stereo not drawn) [C237, 4-(4-amino-8-(1-(but-2-ynoyl)pyrrolidin-3-yl)imidazo[1,5-a][1,3,5]triazin-6-yl)-N-(4-cyclopropylpyridin-2-yl)benzamide]
–	> 7.00	–	CC#CC(=O)N1CCC(c2nc(-c3ccc(C(=O)Nc4cc(C5CC5)ccn4)cc3)n3c(N)nccc23)C1 (stereo not drawn) [C239, 4-(5-amino-1-(1-(but-2-ynoyl)pyrrolidin-3-yl)imidazo[1,5-c]pyrimidin-3-yl)-N-(4-cyclopropylpyridin-2-yl)benzamide]
–	> 7.00	–	CC#CC(=O)N1CCC(c2nc(-c3ccc(C(=O)Nc4cc(OC)ccn4)cc3)n3c(N)nccc23)C1 (stereo not drawn) [C241, 4-(5-amino-1-(1-(but-2-ynoyl)pyrrolidin-3-yl)imidazo[1,5-c]pyrimidin-3-yl)-N-(4-methoxypyridin-2-yl)benzamide]
–	> 7.00	–	C=CC(=O)N1CCCC(c2nc(-c3ccc(Oc4ccccn4)cc3)n3c(N)nccc23)C1 (stereo not drawn) [C243, 1-(3-(5-amino-3-(4-(pyridin-2-yloxy)phenyl)imidazo[1,5-c]pyrimidin-1-yl)piperidin-1-yl)prop-2-en-1-one]
–	> 7.00	–	CC#CC(=O)N1CCC(c2nc(-c3ccc(C(=O)Nc4cc(C5CC5)ccn4)c(F)c3)n3c(N)nccc23)C1 (stereo not drawn) [C247, 4-(5-amino-1-(1-(but-2-ynoyl)pyrrolidin-3-yl)imidazo[1,5-c]pyrimidin-3-yl)-N-(4-cyclopropylpyridin-2-yl)-2-fluorobenzamide]
